Measured values from US20230212584A1, “MEDICAMENT USED FOR TREATING CHOLANGIOCARCINOMA WITH KRAS MUTATIONS” (GENOMICARE BIOTECHNOLOGY (SHANGHAI) CO., LTD., priority 2022, published 2023).

Tests used:
[1] = test system: KRAS-mutated cholangiocarcinoma cell line OZ; experiment: Cell viability assay, CellTiter-Glo (CTG) method, OZ; type: cell-based; settings: 1 μM Fulvestrant; 1 nM Estradiol; 168 hours; inhibition rate increased with concentration; FIG. 4
Procedure: (§1) Fulvestrant was assayed for its anti-cholangiocarcinoma activity using the CTG method. The cell lines used were KRAS-mutated cholangiocarcinoma cell lines HUCCT1 and OZ, as well as KRAS wild-type cholangiocarcinoma cell line HCCC-9810. The efficacy of treatment by a medicament for cholangiocarcinoma was determined by comparing the difference in growth between KRAS-mutant-type group and wild-type group after treatment by a medicament. The specific steps were as follows:
(§2) 1) Different experimental cell lines were sub-cultured into 96-well plates. 100 μL of PBS was added around the 96-well plates as a blank, where the cholangiocarcinoma cell lines used were HUCCT, OZ and HCCC-9810. The cells in the 96-well plates were cultured overnight at 37° C., 5% CO2 and 95% humidity.
(§3) 2) The cell culture medium in the 96-well plate was discarded and 100 μL of phenol red-free RPMI1640 culture medium containing 5% Charcoal Stripped FBS was added.
(§4) 3) The cells in the 96-well plate with the changed medium were cultured at 37° C., 5% CO2, 95% humidity for another 48 hours. […]
(§5) 9) On the 11th day of the culture, CellTiter-Glo® reagent and medicament-treated cell culture plates were placed at room temperature for 30 minutes to equilibrate. […] Chemiluminescence values were read with EnVision®. […]

[2] = test system: KRAS-mutated cholangiocarcinoma cell line HUCCT1; experiment: Cell viability assay, CellTiter-Glo (CTG) method, HUCCT1; type: cell-based; settings: concentration higher than 2.5 μM; 1 nM Estradiol; 168 hours; lower inhibition rate than OZ; FIG. 4
Procedure: as §1, §2, §3, §4, §5

`C[C@]12CC[C@@H]3c4ccc(O)cc4C[C@@H](CCCCCCCCC[S+]([O-])CCCC(F)(F)C(F)(F)F)[C@H]3[C@@H]1CC[C@@H]2O` (some centres unmarked) [Fulvestrant] was tested, and the “growth inhibition of OZ” value [1] was “significant growth inhibition” and the “growth inhibition of HuCCT1” value [2] was “significantly inhibited”.
